Reference: publication PMC8820799, “Angiogenesis and anti-leukaemia activity of novel indole derivatives as potent colchicine binding site inhibitors” (Journal of Enzyme Inhibition and Medicinal Chemistry, 2022)

How the values were obtained:
[1] = molecular target: T1, Tubulin isolated from porcine brain tissue (Sus scrofa, UniProt P02550+P02554); experiment: Tubulin polymerisation assay; format: biochemical; conditions: triplicate, mean ± SD; read-out: Tubulin (tubulin inhibitory polymerisation IC50)
T1 construct: purchased Cytoskeleton (Denver, CO), via Beyotime, China; host or cells: porcine brain tissue
T1 sequence (P02554 whole entry): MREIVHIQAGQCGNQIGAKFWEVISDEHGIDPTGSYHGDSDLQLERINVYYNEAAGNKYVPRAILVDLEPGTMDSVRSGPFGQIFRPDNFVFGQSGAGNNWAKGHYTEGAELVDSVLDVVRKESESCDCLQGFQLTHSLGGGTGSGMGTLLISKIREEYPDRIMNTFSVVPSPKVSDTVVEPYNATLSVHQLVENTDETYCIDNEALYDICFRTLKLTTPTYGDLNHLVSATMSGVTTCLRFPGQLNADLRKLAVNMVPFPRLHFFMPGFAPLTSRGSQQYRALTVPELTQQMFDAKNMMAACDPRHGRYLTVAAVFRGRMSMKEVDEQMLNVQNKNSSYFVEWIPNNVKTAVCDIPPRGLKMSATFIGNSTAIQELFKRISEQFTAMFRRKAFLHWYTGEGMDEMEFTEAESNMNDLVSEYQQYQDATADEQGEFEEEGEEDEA
T1 sequence (P02550 whole entry): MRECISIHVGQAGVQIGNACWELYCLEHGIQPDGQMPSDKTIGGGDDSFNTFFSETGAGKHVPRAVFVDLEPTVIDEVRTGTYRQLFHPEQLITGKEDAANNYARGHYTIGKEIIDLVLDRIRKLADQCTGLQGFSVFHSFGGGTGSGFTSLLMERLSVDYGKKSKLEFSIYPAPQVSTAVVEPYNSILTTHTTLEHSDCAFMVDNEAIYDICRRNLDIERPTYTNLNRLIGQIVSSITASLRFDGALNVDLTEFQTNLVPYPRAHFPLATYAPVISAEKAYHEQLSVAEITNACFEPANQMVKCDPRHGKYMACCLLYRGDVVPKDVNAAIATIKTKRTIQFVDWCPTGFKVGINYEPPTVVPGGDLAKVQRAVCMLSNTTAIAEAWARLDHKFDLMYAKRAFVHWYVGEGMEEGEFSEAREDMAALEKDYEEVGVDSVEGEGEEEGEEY
Method: Tubulin polymerisation was determined with the tubulin polymerisation assay kit (Cytoskeleton, Denver, CO which was purchased from Cytoskeleton, Beyotime, China. Tubulin isolated from porcine brain tissue was used in this commercial kit.) It is based on the principal that light is scattered by microtubules to an extent that is proportional to the concentration of the microtubule polymer. Compounds that interact with tubulin will alter the polymerisation of tubulin, and this can be detected using a spectrophotometer. Tubulin polymerisation dynamics was monitored through measuring the change of absorbance at 340 nm every 2 min for 30 min at 37 °C on a spectrophotometer.

Structure (SMILES) | IC50 [1] [µM] | melting point [°C]
Cn1cc(/C=C/C(=O)c2ccccc2)c2ccccc21 [Compound 23a, (E)-3–(1-Methyl-1H-indol-3-yl)-1-phenylprop-2-en-1-one] | > 100 | –
CCn1cc(/C=C/C(=O)c2ccccc2)c2ccccc21 [Compound 23b, (E)-3–(1-Ethyl-1H-indol-3-yl)-1-phenylprop-2-en-1-one] | > 100 | 165 to 168
CCCn1cc(/C=C/C(=O)c2ccccc2)c2ccccc21 [Compound 23c, (E)-1-Phenyl-3–(1-propyl-1H-indol-3-yl)prop-2-en-1-one] | > 100 | 161 to 162
O=C(/C=C/c1cn(Cc2ccccc2)c2ccccc12)c1ccccc1 [Compound 23d, (E)-3–(1-Benzyl-1H-indol-3-yl)-1-phenylprop-2-en-1-one] | 68.6 ± 3.2 | 161 to 163
O=C(/C=C/c1cn(S(=O)(=O)c2ccccc2)c2ccccc12)c1ccccc1 [Compound 23e, (E)-1-Phenyl-3–(1-(phenylsulfonyl)-1H-indol-3-yl)prop-2-en-1-one] | > 100 | 165 to 168
Cn1cc(/C=C/C(=O)c2cccc(Cl)c2)c2ccccc21 [Compound 24a, (E)-1–(3-Chlorophenyl)-3–(1-methyl-1H-indol-3-yl)prop-2-en-1-one] | > 100 | 173 to 175
CCn1cc(/C=C/C(=O)c2cccc(Cl)c2)c2ccccc21 [Compound 24b, (E)-1–(3-Chlorophenyl)-3–(1-ethyl-1H-indol-3-yl)prop-2-en-1-one] | > 100 | 165 to 168
CCCn1cc(/C=C/C(=O)c2cccc(Cl)c2)c2ccccc21 [Compound 24c, (E)-1–(3-Chlorophenyl)-3–(1-propyl-1H-indol-3-yl)prop-2-en-1-one] | > 100 | 161 to 162
O=C(/C=C/c1cn(Cc2ccccc2)c2ccccc12)c1cccc(Cl)c1 [Compound 24d, (E)-3–(1-Benzyl-1H-indol-3-yl)-1–(3-chlorophenyl)prop-2-en-1-one] | > 100 | 161 to 163
O=C(/C=C/c1cn(S(=O)(=O)c2ccccc2)c2ccccc12)c1cccc(Cl)c1 [Compound 24e, (E)-1–(3-Chlorophenyl)-3–(1-(phenylsulfonyl)-1H-indol-3-yl)prop-2-en-1-one] | 92.3 ± 2.4 | 165 to 168
Cn1cc(/C=C/C(=O)c2ccc(Cl)cc2)c2ccccc21 [Compound 25a, (E)-1–(4-chlorophenyl)-3–(1-methyl-1H-indol-3-yl)prop-2-en-1-one] | > 100 | 171 to 173
CCn1cc(/C=C/C(=O)c2ccc(Cl)cc2)c2ccccc21 [Compound 25b, (E)-1–(4-chlorophenyl)-3–(1-ethyl-1H-indol-3-yl)prop-2-en-1-one] | > 100 | 165 to 168
CCCn1cc(/C=C/C(=O)c2ccc(Cl)cc2)c2ccccc21 [Compound 25c, (E)-1–(4-chlorophenyl)-3–(1-propyl-1H-indol-3-yl)prop-2-en-1-one] | > 100 | 160 to 162
O=C(/C=C/c1cn(Cc2ccccc2)c2ccccc12)c1ccc(Cl)cc1 [Compound 25d, (E)-3–(1-benzyl-1H-indol-3-yl)-1–(4-chlorophenyl)prop-2-en-1-one] | > 100 | 163 to 165
O=C(/C=C/c1cn(S(=O)(=O)c2ccccc2)c2ccccc12)c1ccc(Cl)cc1 [Compound 25e, (E)-1–(4-chlorophenyl)-3–(1-(phenylsulfonyl)-1H-indol-3-yl)prop-2-en-1-one] | > 100 | 162 to 165
COc1ccc(C(=O)/C=C/c2cn(C)c3ccccc23)cc1 [Compound 26a, (E)-1–(4-Methoxyphenyl)-3–(1-methyl-1H-indol-3-yl)prop-2-en-1-one] | 85.7 ± 2.5 | 160 to 162
CCn1cc(/C=C/C(=O)c2ccc(OC)cc2)c2ccccc21 [Compound 26b, (E)-3–(1-Ethyl-1H-indol-3-yl)-1–(4-methoxyphenyl)prop-2-en-1-one] | 78.8 ± 1.3 | 165 to 168
CCCn1cc(/C=C/C(=O)c2ccc(OC)cc2)c2ccccc21 [Compound 26c, (E)-1–(4-Methoxyphenyl)-3–(1-propyl-1H-indol-3-yl)prop-2-en-1-one] | 72.5 ± 1.7 | 161 to 162
COc1ccc(C(=O)/C=C/c2cn(Cc3ccccc3)c3ccccc23)cc1 [Compound 26d, (E)-3–(1-Benzyl-1H-indol-3-yl)-1–(4-methoxyphenyl)prop-2-en-1-one] | 75.8 ± 2.6 | 161 to 163
COc1cccc(C(=O)/C=C/c2cn(C)c3ccccc23)c1 [Compound 27a, (E)-1–(3-Methoxyphenyl)-3–(1-methyl-1H-indol-3-yl)prop-2-en-1-one] | > 100 | 161 to 162
CCn1cc(/C=C/C(=O)c2cccc(OC)c2)c2ccccc21 [Compound 27b, (E)-3–(1-Ethyl-1H-indol-3-yl)-1–(3-methoxyphenyl)prop-2-en-1-one] | > 100 | 165 to 166
COc1cccc(C(=O)/C=C/c2cn(Cc3ccccc3)c3ccccc23)c1 [Compound 27d, (E)-3–(1-Benzyl-1H-indol-3-yl)-1–(3-methoxyphenyl)prop-2-en-1-one] | > 100 | 161 to 163
COc1cccc(C(=O)/C=C/c2cn(S(=O)(=O)c3ccccc3)c3ccccc23)c1 [Compound 27e, (E)-1–(3-Methoxyphenyl)-3–(1-(phenylsulfonyl)-1H-indol-3-yl)prop-2-en-1-one] | 87.2 ± 1.4 | 167 to 168
Cn1cc(/C=C/C(=O)c2ccc(C(F)(F)F)cc2)c2ccccc21 [Compound 28a, (E)-3–(1-Methyl-1H-indol-3-yl)-1–(4-(trifluoromethyl)phenyl)prop-2-en-1-one] | > 100 | 160 to 162
CCn1cc(/C=C/C(=O)c2ccc(C(F)(F)F)cc2)c2ccccc21 [Compound 28b, (E)-3–(1-ethyl-1H-indol-3-yl)-1–(4-(trifluoromethyl)phenyl)prop-2-en-1-one] | > 100 | 165 to 168
CCCn1cc(/C=C/C(=O)c2ccc(C(F)(F)F)cc2)c2ccccc21 [Compound 28c, (E)-3–(1-Propyl-1H-indol-3-yl)-1–(4-(trifluoromethyl)phenyl)prop-2-en-1-one] | 26.8 ± 4.6 | 161 to 162
O=C(/C=C/c1cn(Cc2ccccc2)c2ccccc12)c1ccc(C(F)(F)F)cc1 [Compound 28d, (E)-3–(1-Benzyl-1H-indol-3-yl)-1–(4-(trifluoromethyl)phenyl)prop-2-en-1-one] | > 100 | 160 to 163
CCn1cc(/C=C/C(=O)c2cc(OC)c(OC)c(OC)c2)c2ccccc21 [Compound 29b, (E)-3–(1-Ethyl-1H-indol-3-yl)-1–(3,4,5-trimethoxyphenyl)prop-2-en-1-one] | > 100 | 155 to 158
CCCn1cc(/C=C/C(=O)c2cc(OC)c(OC)c(OC)c2)c2ccccc21 [Compound 29c, (E)-3–(1-Propyl-1H-indol-3-yl)-1–(3,4,5-trimethoxyphenyl)prop-2-en-1-one] | > 100 | 162 to 164
